Results published in patent US20070197512A1, “Carboxylic Acid Compounds and Use Thereof” (Japan Tobacco Inc., priority 2006, published 2007).

Tests used:
[1] = biological target: T1, CYP2C9 (Homo sapiens, UniProt P11712); assay: CYP inhibitory test using human liver microsome; type: in vitro ADME; conditions: model substrate diclofenac, 37° C., 10 min, read-out: CYP2C9 inhibition, IC50
T1 construct: Human liver microsome (20 mg protein/mL, 5 μL, Xenotech LLC, purchased from Lenexa Kans.); tissue Xenotech LLC; host or cells: human liver microsomes
T1 sequence (P11712 whole entry): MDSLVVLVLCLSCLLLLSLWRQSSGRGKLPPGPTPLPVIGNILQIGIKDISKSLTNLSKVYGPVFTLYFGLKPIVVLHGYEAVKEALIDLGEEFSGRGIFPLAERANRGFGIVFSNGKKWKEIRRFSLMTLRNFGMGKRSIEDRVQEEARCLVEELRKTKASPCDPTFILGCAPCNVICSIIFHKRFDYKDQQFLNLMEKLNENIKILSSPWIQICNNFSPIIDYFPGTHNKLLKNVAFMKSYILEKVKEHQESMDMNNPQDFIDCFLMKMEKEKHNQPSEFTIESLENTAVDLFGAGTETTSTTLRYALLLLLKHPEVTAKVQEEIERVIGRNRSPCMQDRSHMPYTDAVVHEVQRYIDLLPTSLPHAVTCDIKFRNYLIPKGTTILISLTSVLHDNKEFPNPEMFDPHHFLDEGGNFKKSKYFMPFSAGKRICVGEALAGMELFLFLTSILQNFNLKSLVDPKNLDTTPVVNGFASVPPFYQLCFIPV
Procedure: Experimental Example 2 CYP Inhibitory Test Using Human Liver Microsome
Human liver microsome (20 mg protein/mL, 5 μL, Xenotech LLC, purchased from Lenexa Kans.) was suspended in 100 mM potassium phosphate buffer (70 μL, pH 7.4), mixed with a solution (0.5 μL) of the Example compound dissolved in DMSO and preincubated at 37° C. for 5 min. NADPH producing system coenzyme solution (β-nicotinamide adenine dinucleotide phosphate: 5.2 mM, D-glucose-6-phosphate: 13.2 mM, magnesium chloride: 13.2 mM, glucose-6-phosphate dehydrogenase: 1.8 U/mL) 25 μL, and a model substrate (CYP3A4: midazolam 1 mM, CYP2D6: bufuralol 1 mM, CYP2C9: diclofenac 2 mM) 0.5 μL dissolved in DMSO were added to start the reaction. After incubation at 37° C. for 10 min., acetonitrile (200 μL) containing an internal standard substance (propranolol 1 μM) was added and the mixture was centrifuged (room temperature, 3000 rpm, 20 min). The amount of the metabolite produced from each model substrate in the supernatant was measured by high performance liquid chromatography/mass spectrometry (LC/MS/MS) and each CYP enzyme activity was determined. The concentration showing 50% inhibition (IC50) was calculated relative to the enzyme activity without addition of Example compound (DMSO 0.5 μL added) as 100%.
As a comparative example, the CYP enzyme activity of the compound described in JP-A-3-135917 was examined by determining the IC50 value in the same manner as above.

[2] = biological target: T2, human URAT1 (Homo sapiens, UniProt Q96S37); assay: Uric acid transport inhibitory test using human URAT1-expressing cells; type: cell-based; conditions: human URAT1-expressing HEK293 cells, 14C-uric acid 50 μM, uptake 5 min, room temperature; read-out: hURAT1 IC50
T2 construct: Human URAT1 full length cDNA was subcloned to expression vector pcDNA3.1; expressed in transfected cells; host or cells: HEK293 cells (pcDNA3.1, geneticin-selected)
T2 sequence (Q96S37 1-553): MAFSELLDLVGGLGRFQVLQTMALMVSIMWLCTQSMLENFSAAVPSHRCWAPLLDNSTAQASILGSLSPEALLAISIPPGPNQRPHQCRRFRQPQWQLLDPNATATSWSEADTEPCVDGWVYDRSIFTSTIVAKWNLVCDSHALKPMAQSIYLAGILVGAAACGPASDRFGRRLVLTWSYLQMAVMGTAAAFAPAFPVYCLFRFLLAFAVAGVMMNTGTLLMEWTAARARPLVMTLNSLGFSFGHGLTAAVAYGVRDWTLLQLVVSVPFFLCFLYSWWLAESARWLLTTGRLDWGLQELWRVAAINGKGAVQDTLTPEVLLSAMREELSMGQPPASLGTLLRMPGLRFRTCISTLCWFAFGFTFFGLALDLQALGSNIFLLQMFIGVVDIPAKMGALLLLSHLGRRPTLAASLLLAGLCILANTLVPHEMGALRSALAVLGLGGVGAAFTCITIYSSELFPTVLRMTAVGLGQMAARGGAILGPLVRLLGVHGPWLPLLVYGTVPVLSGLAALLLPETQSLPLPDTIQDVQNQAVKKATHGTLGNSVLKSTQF
Procedure, shortened: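 HEK293 cells stably transfected with full-length human URAT1; mock-transfected HEK293 served as background. Uptake of 14C-uric acid (50 μM final) over 5 min at room temperature in Na-gluconate-substituted HBSS with compound, read by scintillation. IC50 derived from URAT1-specific transport (URAT1 minus mock, DMSO = 100%).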

| IC50 [1] | IC50 [2] | Compound |
| --- | --- | --- |
| > 50 µM | ≥ 3 µM | CC(C)C1CN(C(=O)/C=C/C(=O)O)c2cc(Cl)ccc2O1 (stereo not drawn) [Example 69, (E)-4-(6-chloro-2-isopropyl-2,3-dihydrobenzo[1,4]oxazin-4-yl)-4-oxo-2-butenoic acid] |
| > 50 µM | < 0.3 µM | Cc1cc(Cl)cc2c1O[C@H](C(C)C)C(=O)N2CCC(=O)O [Example 107, 3-((R)-6-chloro-2-isopropyl-8-methyl-3-oxo-2,3-dihydrobenzo[1,4]oxazin-4-yl)propionic acid] |
| > 50 µM | ≥ 3 µM | Cc1cccc2c1OC(c1ccccc1)CN2C(=O)/C=C/C(=O)O (stereo not drawn) [Example 55, (E)-4-(8-methyl-2-phenyl-2,3-dihydrobenzo[1,4]oxazin-4-yl)-4-oxo-2-butenoic acid] |
| > 50 µM | < 0.3 µM | CCCC1Oc2c(C)cc(C)cc2N(CCC(=O)O)C1=O (stereo not drawn) [Example 102, 3-(6,8-dimethyl-3-oxo-2-propyl-2,3-dihydrobenzo[1,4]oxazin-4-yl)propionic acid] |
| > 50 µM | 0.3 to 3 µM | Cc1cc(Cl)cc2c1OC(c1ccccc1)CN2C(=O)/C=C/C(=O)O (stereo not drawn) [Example 84, (E)-4-(6-chloro-8-methyl-2-phenyl-2,3-dihydrobenzo[1,4]oxazin-4-yl)-4-oxo-2-butenoic acid] |
| > 50 µM | 0.3 to 3 µM | CC(C)c1cccc2c1OC(C(C)C)CN2C(=O)/C=C/C(=O)O (stereo not drawn) [Example 36, (E)-4-(2,8-diisopropyl-2,3-dihydrobenzo[1,4]oxazin-4-yl)-4-oxo-2-butenoic acid] |
| > 50 µM | 0.3 to 3 µM | CC(C)[C@@H]1Oc2c(Cl)cc(Cl)cc2N(CCC(=O)O)C1=O [Example 111, 3-((S)-6,8-dichloro-2-isopropyl-3-oxo-2,3-dihydrobenzo[1,4]oxazin-4-yl)propionic acid] |
| > 50 µM | 0.3 to 3 µM | CC(C)c1cccc2c1OC(C(C)C)C(=O)N2CCC(=O)O (stereo not drawn) [Example 14, 3-(2,8-diisopropyl-3-oxo-2,3-dihydrobenzo[1,4]oxazin-4-yl)propionic acid] |
| > 50 µM | < 0.3 µM | CC(C)[C@H]1Oc2c(Cl)cc(Cl)cc2N(CCC(=O)O)C1=O [Example 108, 3-((R)-6,8-dichloro-2-isopropyl-3-oxo-2,3-dihydrobenzo[1,4]oxazin-4-yl)propionic acid] |
| > 50 µM | < 0.3 µM | Cc1cc(C)c2c(c1)N(CCC(=O)O)C(=O)[C@@H](C(C)C)O2 [Example 74, 3-((R)-2-isopropyl-6,8-dimethyl-3-oxo-2,3-dihydrobenzo[1,4]oxazin-4-yl)propionic acid] |
| > 50 µM | < 0.3 µM | Cc1cc(Cl)c2c(c1)N(CCC(=O)O)C(=O)[C@@H](C(C)C)O2 [Example 106, 3-((R)-8-chloro-2-isopropyl-6-methyl-3-oxo-2,3-dihydrobenzo[1,4]oxazin-4-yl)propionic acid] |
| 30 µM | ≥ 3 µM | CC(C)c1cccc2c1OC(C(C)C)C(=O)N2CC(=O)O (stereo not drawn) [Example 9, (2,8-diisopropyl-3-oxo-2,3-dihydrobenzo[1,4]oxazin-4-yl)acetic acid] |
| > 50 µM | < 0.3 µM | Cc1c(Cl)cc2c(c1Cl)OC(C(C)C)C(=O)N2CCC(=O)O (stereo not drawn) [Example 94, 3-(6,8-dichloro-2-isopropyl-7-methyl-3-oxo-2,3-dihydrobenzo[1,4]oxazin-4-yl)propionic acid] |
| > 50 µM | 0.3 to 3 µM | CC(C)c1cccc2c1OC(C(C)C)C(=S)N2CCC(=O)O (stereo not drawn) [Example 16, 3-(2,8-diisopropyl-3-thioxo-2,3-dihydrobenzo[1,4]oxazin-4-yl)propionic acid] |
| > 50 µM | < 0.3 µM | CCc1cc(C)c2c(c1)N(CCC(=O)O)C(=O)C(C(C)C)O2 (stereo not drawn) [Example 101, 3-(6-ethyl-2-isopropyl-8-methyl-3-oxo-2,3-dihydrobenzo[1,4]oxazin-4-yl)propionic acid] |
